The target in experiment [1] is T1, Bloom's syndrome protein (BLM) helicase (Homo sapiens, UniProt P54132).
T1 construct: BLM 642-1290
Nature of the experiment: biochemical. The settings on record: dsDNA binding; read-out: % of control remaining. Set-up: fluorescence polarization; displacement of fluorescein-dsDNA bound to BLM642-1290; relative DNA binding activity. How it is done: First, fluorescein-labeled dsDNA (2 nM) was added into a reaction buffer (20 mM Tris, 25 mM NaCl, 3 mM MgCl2, 0.1 mM DTT, pH 7.9) to detect the fluorescence anisotropy until it was stable. Then, 500 nM BLM^642−1290 was added to equilibrate the DNA substrate, and the fluorescence anisotropy value was then detected. Finally, small molecules with a concentration of 10 μM were added, and the fluorescence anisotropy value was detected until it was stable. The total reaction volume was adjusted to 150 μL by adjusting with ddH2O volume. The ability of AO/854 to inhibit the ability of the BLM^642−1290 to bind to dsDNA and ssDNA was also assessed using a fluorescence polarization assay. The method used was similar to that described above, except different concentrations of AO/854 were added to the reaction. By using the same protocol, we detected AO/854 affecting DNA unwinding of BLM^642−1290. The 0–50 μM concentrations of AO/854 were added to the reaction. In the final step, 0.2 mM of ATP was added to the reaction. The fluorescence anisotropy value was detected until it was stable. The inhibiting ratio of BLM on DNA binding activity and DNA unwinding activity was determined. By using high-throughput virtual and protein-based screening assays, we discovered an isobenzofuranone compound with the desired properties. The flow chart of our work is as follows (Figure 2A). Before the first round of docking using the Autodock Vina, an optimized database (approximately 200,000 compounds) was achieved by filtering using Lipinski’s rule of five and Veber rules and removing duplicate molecules from the Specs database (Figure S1). The top 1000 compounds from the previous step were docked with Autodock (Figure S2). The top 30 small molecules (Table S1) obtained through virtual screening were dissolved in DMSO and prepared into mother liquor at a concentration of 20 mM. We purified a truncated structure of BLM that retained helicase activity in vitro (Figure S3), selected a fluorescein-labeled dsDNA as a substrate, and used a fluorescence polarization assay to determine if the promising compounds disrupted the binding between BLM and DNA.

In experiment [2] the target is T1, Bloom's syndrome protein (BLM) helicase. Nature of the experiment: fluorescence polarization DNA-binding and unwinding assays, EMSA, malachite green ATPase assay with purified BLM642-1290; CD spectral change. Type of experiment: biochemical.

T1 sequence (P54132 642-1290): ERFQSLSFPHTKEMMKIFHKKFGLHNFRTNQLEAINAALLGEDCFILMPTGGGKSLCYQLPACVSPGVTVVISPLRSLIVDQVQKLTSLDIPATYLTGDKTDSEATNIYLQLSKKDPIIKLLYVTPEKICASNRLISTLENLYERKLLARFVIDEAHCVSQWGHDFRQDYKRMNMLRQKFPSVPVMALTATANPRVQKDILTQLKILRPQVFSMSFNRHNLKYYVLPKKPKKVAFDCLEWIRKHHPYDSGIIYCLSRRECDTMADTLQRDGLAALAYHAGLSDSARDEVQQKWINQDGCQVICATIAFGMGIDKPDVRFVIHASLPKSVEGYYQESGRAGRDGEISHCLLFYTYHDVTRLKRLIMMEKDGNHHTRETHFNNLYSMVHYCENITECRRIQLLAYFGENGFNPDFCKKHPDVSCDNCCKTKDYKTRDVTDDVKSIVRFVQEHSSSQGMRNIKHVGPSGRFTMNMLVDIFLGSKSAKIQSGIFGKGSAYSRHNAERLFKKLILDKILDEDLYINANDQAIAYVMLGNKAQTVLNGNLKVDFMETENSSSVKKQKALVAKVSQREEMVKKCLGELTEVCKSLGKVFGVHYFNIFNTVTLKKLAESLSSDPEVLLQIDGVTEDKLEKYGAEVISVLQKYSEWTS

For `Cc1cc(C2(c3ccc(O)c(C)c3)OC(=O)c3ccccc32)ccc1O` [compound 2], the remaining activity at 10 µM in experiment [1] came to 31.5%.

As to `O=C1c2cc(S(=O)(=O)Nc3cccc4ccccc34)ccc2-c2ccc(S(=O)(=O)Nc3cccc4ccccc34)cc21` [compound 20], the remaining activity at 10 µM in experiment [1] was 96.6%.

For `O=[N+]([O-])c1ccc(S(=O)(=O)Oc2ccc(C3(c4ccc(OS(=O)(=O)c5ccc([N+](=O)[O-])cc5)cc4)c4ccccc4-c4ccccc43)cc2)cc1` [compound 1], the remaining activity at 10 µM in experiment [1] amounted to 98.9%.

As to `Cc1cc(C2(c3ccc(O)c(C)c3)OC(=O)c3ccccc32)ccc1O` [AO/854, AO/854/43447428], the IC50 in experiment [2] is less than 10 µM.

Regarding `CCCCC(OC(=O)c1ccc(N2C(=O)C3C4c5ccccc5C(c5ccccc54)C3C2=O)cc1)C(=O)c1ccc(-c2ccccc2)cc1` (centres unmarked) [compound 10], in experiment [1], the remaining activity at 10 µM is 103%.

Take `CC(=O)Nc1ccc(N2C(=O)c3ccc(C(=O)c4ccc5c(c4)C(=O)N(c4ccc(NC(C)=O)cc4)C5=O)cc3C2=O)cc1` [compound 28]: the remaining activity at 10 µM in experiment [1] was determined as 97.3%.

Regarding `Cc1ccc(-c2csc3nc(SCC(=O)Nc4ccc(C)c(C)c4)n(-c4ccccc4)c(=O)c23)o1` [compound 19], the remaining activity at 10 µM in experiment [1] was determined as 93.9%.

In the case of `Cc1ccc(-c2csc3nc(SCC(=O)Nc4cccc5ccccc45)n(-c4ccccc4)c(=O)c23)o1` [compound 3], the remaining activity at 10 µM in experiment [1] is 94.9%.

Values taken from article PMC9736344, “Discovery of a Novel Bloom’s Syndrome Protein (BLM) Inhibitor Suppressing Growth and Metastasis of Prostate Cancer” (International Journal of Molecular Sciences, 2022).
